In ChEMBL document CHEMBL3580594, “Synthesis and biological evaluation of 4-substituted fluoronucleoside analogs for the treatment of hepatitis B virus infection” (J Med Chem, 2015):

Columns and labels:
Hepatitis B virus [1] = test: Antiviral activity against Hepatitis B virus in HepG2.2.15 cells assessed as inhibition of intracellular viral DNA replication at 5 uM after 9 days by real-time FQ-PCR analysis; format: functional; conditions: HepG2 2.2.15, 216 h
Hepatitis B virus [2] = test: Antiviral activity against Hepatitis B virus in HepG2.2.15 cells assessed as inhibition of extracellular viral DNA replication at 0.2 uM after 6 days by real-time FQ-PCR analysis; format: functional; conditions: HepG2 2.2.15, 144 h
Duck hepatitis B virus [3] = test: Antiviral activity against duck Hepatitis B virus infected in duck assessed as inhibition of viral DNA replication in liver at 1 mg/kg/day, po treatment initiated at day 5 after infection relative to control; format: functional; conditions: 120 h
Duck hepatitis B virus [4] = test: Antiviral activity against duck Hepatitis B virus infected in duck assessed as inhibition of viral DNA replication in liver at 0.2 mg/kg/day, po measured after 3 days of treatment withdrawal; format: functional; conditions: 72 h
Mus musculus [5] = test: Toxicity in KM mouse assessed as micronucleus frequency in bone marrow polychromatic erythrocyte at 20 mg/kg, po single dose after 48 hrs (reference value: 1.20 +/- 0.45 %); format: organism-based; conditions: in vivo
Duck hepatitis B virus [6] = test: Antiviral activity against duck Hepatitis B virus infected in po dosed duck assessed as inhibition of viral DNA replication in liver; format: functional, organism-based
Duck hepatitis B virus [7] = test: Antiviral activity against duck Hepatitis B virus infected in duck assessed as inhibition of viral DNA replication in serum at 0.2 mg/kg/day, po treatment initiated at day 10 after infection relative to control; format: functional; conditions: 240 h
Mus musculus [8] = test: Toxicity in KM mouse assessed as micronucleus frequency in bone marrow polychromatic erythrocyte at 20 mg/kg, po single dose after 48 hrs (reference value: 2.20 +/- 0.84 %); format: organism-based; conditions: in vivo
Mus musculus [9] = test: Acute toxicity in KM mouse assessed as weight loss at 3 g/kg, iv suspended in 0.5% CMC/Na solution after 14 days; format: organism-based; conditions: in vivo, 3000 mg/kg, 336 h
Hepatitis B virus [10] = test: Antiviral activity against Hepatitis B virus in HepG2.2.15 cells assessed as inhibition of intracellular viral DNA replication at 1 uM after 3 days by real-time FQ-PCR analysis; format: functional; conditions: HepG2 2.2.15, 72 h
Duck hepatitis B virus [11] = test: Antiviral activity against duck Hepatitis B virus infected in duck assessed as inhibition of viral DNA replication in serum at 0.04 mg/kg/day, po treatment initiated at day 10 after infection relative to control; format: functional; conditions: 240 h
Mus musculus [12] = test: Acute toxicity in KM mouse assessed as listlessness at 300 mg/kg, iv suspended in normal saline; format: organism-based; conditions: in vivo
Hepatitis B virus [13] = test: Antiviral activity against Hepatitis B virus in HepG2.2.15 cells assessed as inhibition of extracellular viral DNA replication at 5 uM after 3 days by real-time FQ-PCR analysis; format: functional; conditions: HepG2 2.2.15, 72 h
Duck hepatitis B virus [14] = test: Antiviral activity against duck Hepatitis B virus infected in duck assessed as inhibition of viral DNA replication in serum at 1 mg/kg/day, po treatment initiated at day 5 after infection relative to control; format: functional; conditions: 120 h
Mus musculus [15] = test: Acute toxicity in KM mouse assessed as adverse effect at 200 mg/kg, iv suspended in normal saline; format: organism-based; conditions: in vivo
Mus musculus [16] = test: Toxicity in KM mouse assessed as micronucleus frequency in bone marrow polychromatic erythrocyte at 10 mg/kg, po single dose after 48 hrs (reference value: 1.20 +/- 0.45 %); format: organism-based; conditions: in vivo
Hepatitis B virus [17] = test: Antiviral activity against Hepatitis B virus in HepG2.2.15 cells assessed as inhibition of extracellular viral DNA replication at 0.2 uM after 3 days by real-time FQ-PCR analysis; format: functional; conditions: HepG2 2.2.15, 72 h
Hepatitis B virus [18] = test: Antiviral activity against Hepatitis B virus in HepG2.2.15 cells assessed as inhibition of intracellular viral DNA replication at 5 uM after 3 days by real-time FQ-PCR analysis; format: functional; conditions: HepG2 2.2.15, 72 h
Rattus norvegicus [19] = test: In vivo drug metabolism in rat bile sample assessed as 1-((2R,3S,4R,5R)-5-azido-3-fluoro-4-hydroxy-5-(hydroxymethyl)tetrahydrofuran-2-yl)-4-(2-hydroxycyclopropylamino)pyrimidin-2(1H)-one formation by LC-MS/MS analysis; format: ADME, organism-based
Duck hepatitis B virus [20] = test: Antiviral activity against duck Hepatitis B virus infected in duck assessed as inhibition of viral DNA replication in liver at 0.04 mg/kg/day, po treatment initiated at day 5 after infection relative to control; format: functional; conditions: 120 h
Duck hepatitis B virus [21] = test: Antiviral activity against duck Hepatitis B virus infected in duck assessed as inhibition of viral DNA replication in serum at 0.04 to 20 mg/kg, po; format: functional, organism-based; conditions: TDE = time-dependent effect
Mus musculus [22] = test: Toxicity in KM mouse assessed as peripheral WBC number in blood per liter at 10 mg/kg/day, po 5 doses (reference value: 7.47 +/- 33.77 /L x 10^-9 cells); format: organism-based; conditions: in vivo
Hepatitis B virus [23] = test: Antiviral activity against Hepatitis B virus in HepG2.2.15 cells assessed as inhibition of extracellular viral DNA replication at 1 uM after 3 days by real-time FQ-PCR analysis; format: functional; conditions: HepG2 2.2.15, 72 h
Hepatitis B virus [24] = test: Antiviral activity against Hepatitis B virus in HepG2.2.15 cells assessed as inhibition of intracellular/extracellular viral DNA replication after 3 to 9 days by real-time FQ-PCR analysis; format: functional, organism-based; conditions: HepG2 2.2.15
Hepatitis B virus [25] = test: Antiviral activity against Hepatitis B virus in HepG2.2.15 cells assessed as inhibition of extracellular viral DNA replication at 0.2 uM after 9 days by real-time FQ-PCR analysis; format: functional; conditions: HepG2 2.2.15, 216 h
Hepatitis B virus [26] = test: Antiviral activity against Hepatitis B virus in HepG2.2.15 cells assessed as inhibition of intracellular viral DNA replication at 0.2 uM after 9 days by real-time FQ-PCR analysis; format: functional; conditions: HepG2 2.2.15, 216 h
Duck hepatitis B virus [27] = test: Antiviral activity against duck Hepatitis B virus infected in duck assessed as inhibition of viral DNA replication in liver at 0.2 mg/kg/day, po treatment initiated at day 10 after infection relative to control; format: functional; conditions: 240 h
Mus musculus [28] = test: Acute toxicity in KM mouse assessed as death at 400 mg/kg, iv suspended in normal saline; format: organism-based; conditions: in vivo
Hepatitis B virus [29] = test: Antiviral activity against Hepatitis B virus in HepG2.2.15 cells assessed as inhibition of intracellular/extracellular viral DNA replication at 0.2 to 5 uM by real-time FQ-PCR analysis; format: functional, organism-based; conditions: HepG2 2.2.15, TDE = time-dependent effect
Mus musculus [30] = test: Toxicity in KM mouse assessed as peripheral WBC number in blood per liter at 20 mg/kg/day, po 5 doses (reference value: 7.47 +/- 33.77 /L x 10^-9 cells); format: organism-based; conditions: in vivo
Rattus norvegicus [31] = species: Rattus norvegicus; test: Drug metabolism in rat urine sample assessed as 1-((2R,3S,4R,5R)-5-azido-3-fluoro-4-hydroxy-5-(hydroxymethyl)tetrahydrofuran-2-yl)-4-(2,3-dihydroxycyclopropylamino)pyrimidin-2(1H)-one formation by LC-MS/MS analysis; format: ADME, organism-based; conditions: in vivo
Duck hepatitis B virus [32] = test: Antiviral activity against duck Hepatitis B virus infected in duck assessed as inhibition of viral DNA replication in liver at 0.04 mg/kg/day, po treatment initiated at day 10 after infection relative to control; format: functional; conditions: 240 h
Hepatitis B virus [33] = test: Antiviral activity against Hepatitis B virus in HepG2.2.15 cells assessed as inhibition of intracellular viral DNA replication at 5 uM after 6 days by real-time FQ-PCR analysis; format: functional; conditions: HepG2 2.2.15, 144 h

[N-]=[N+]=N[C@]1(CO)O[C@@H](n2ccc(NC3CC3)nc2=O)[C@@H](F)[C@@H]1O
inhibition at 5 µM (Hepatitis B virus [1]): 68.2%
inhibition at 0.2 µM (Hepatitis B virus [2]): 52%
inhibition in vivo at 1 mg/kg/day (Duck hepatitis B virus [3]): 64.1%
inhibition in vivo at 0.2 mg/kg/day (Duck hepatitis B virus [4]): 63.1%
Activity (Mus musculus [5]): 2.8%
inhibition (Duck hepatitis B virus [6]): Dose-dependent effect
inhibition in vivo at 0.2 mg/kg/day (Duck hepatitis B virus [7]): 69.5%
Activity (Mus musculus [8]): 1.6%
Activity (Mus musculus [9]): Non-toxic
inhibition at 1 µM (Hepatitis B virus [10]): 39.2%
inhibition in vivo at 0.04 mg/kg/day (Duck hepatitis B virus [11]): 43.4%
Activity (Mus musculus [12]): Toxic
inhibition at 5 µM (Hepatitis B virus [13]): 53%
inhibition in vivo at 1 mg/kg/day (Duck hepatitis B virus [14]): 71.9%
Activity (Mus musculus [15]): Non-toxic
Activity (Mus musculus [16]): 1.4%
inhibition at 0.2 µM (Hepatitis B virus [17]): 33.8%
inhibition at 5 µM (Hepatitis B virus [18]): 46.2%
Drug metabolism (Rattus norvegicus [19]): metabolite_detected
inhibition in vivo at 0.04 mg/kg/day (Duck hepatitis B virus [20]): 34.8%
inhibition (Duck hepatitis B virus [21]): tde
Activity (Mus musculus [22]): 8.09 ×10⁹ /L
inhibition at 1 µM (Hepatitis B virus [23]): 54%
inhibition (Hepatitis B virus [24]): Dose-dependent effect
inhibition at 0.2 µM (Hepatitis B virus [25]): 52.1%
inhibition at 0.2 µM (Hepatitis B virus [26]): 46.5%
inhibition in vivo at 0.2 mg/kg/day (Duck hepatitis B virus [27]): 68.7%
Activity (Mus musculus [28]): Toxic
inhibition (Hepatitis B virus [29]): tde
Activity (Mus musculus [30]): 6.53 ×10⁹ /L
Drug metabolism (Rattus norvegicus [31]): metabolite_detected
inhibition in vivo at 0.04 mg/kg/day (Duck hepatitis B virus [32]): 62.8%
inhibition at 5 µM (Hepatitis B virus [33]): 53%
